{"source": "patent US7150974B1", "about": "“Parathyroid hormone receptor binding method” (The General Hospital Corporation, priority 1991, dated 2006)", "molecular_target": "T1, rat bone PTH/PTHrP receptor (Rattus norvegicus, UniProt P25961, E586G)", "T1 construct": "expressed in transfected cells; host or cells: COS / COS-7 cells, transient, plasmid R15B (pcDNA I)", "T1 sequence (P25961 27-591 E586G)": "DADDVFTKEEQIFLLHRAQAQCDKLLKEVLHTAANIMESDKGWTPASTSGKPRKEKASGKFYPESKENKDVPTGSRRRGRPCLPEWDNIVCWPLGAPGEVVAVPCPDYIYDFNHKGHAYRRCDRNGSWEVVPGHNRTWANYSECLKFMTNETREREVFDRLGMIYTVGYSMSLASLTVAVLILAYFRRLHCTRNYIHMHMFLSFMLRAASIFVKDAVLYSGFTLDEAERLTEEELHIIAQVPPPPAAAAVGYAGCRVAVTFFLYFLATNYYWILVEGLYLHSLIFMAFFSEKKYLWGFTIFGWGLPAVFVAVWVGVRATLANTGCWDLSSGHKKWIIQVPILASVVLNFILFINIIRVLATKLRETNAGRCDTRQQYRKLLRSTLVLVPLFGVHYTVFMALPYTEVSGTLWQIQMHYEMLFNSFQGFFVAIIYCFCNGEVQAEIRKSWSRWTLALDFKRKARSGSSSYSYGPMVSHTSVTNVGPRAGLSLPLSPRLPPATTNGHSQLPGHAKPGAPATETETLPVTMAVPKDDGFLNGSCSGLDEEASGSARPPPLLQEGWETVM", "assay": "Radioreceptor assay, COS cells expressing rat bone PTH/PTHrP receptor (R15B)", "format": "binding", "procedure": "In brief, the labeled peptide was dissolved in 0.1% trifluoracetic acid (TFA), applied to a C18 Sep-pak cartridge (Waters Associates, Inc., Milford, Mass.) and eluted with a solution of 60% acetonitrile in 0.1% TFA. After lyophilization, the radioligand then was applied to C18-μBondapak column (3.9 mm×30 cm. Waters Associates) and eluted over 30 min with a linear gradient of 30-50% acetonitrile-0.1% TFA at a flow rate of 2 ml/min.\nCOS-7 cells were grown in 15 cm plates in DMEM, 10% heat-inactivated […], 10 mg/L gentamycin until 80-90% confluent. Twenty-four hours after transfection by the DEAE/Dextran method (Sambrook et al., supra), with 1-2 μg of plasmid DNA, the cells were trypsinized and replated in multiwell plastic dishes (16 or 35 mm diameter, Costar, Cambridge, Mass.) at a cell concentration of 5×10^4 cells/cm^2). […] After continuing culture for another 48 h, radiorecepter assays were performed. The culture medium was replaced with buffer containing 50 mM Tris-HCL (pH 7.7), 100 mM NaCl, 2 mM CaCl2, 5 mM KCL, 0.5% heat-inactivated fetal bovine serum (GIBCO), and 5% heat-inactivated horse serum (KC Biological Inc., Lenexa, Kans.) immediately before studies were initiated.\nIncubations were terminated by aspirating the buffer, and repeatedly (×3) washing the culture dishes, containing the adherent cells with chilled 0.9% NaCl solution, over a 15 sec period. Cell-bound radioactivity was recovered by the sequential addition (×3) of 1 N NaOH (200 μl) to each well. After 30 min at room temperature, the NaOH was transferred to a glass tube. A second and third extraction with 1 N NaOH (200 μl) were combined with the first, and the total radioactivity was counted in a γ-spectrometer (Packard Instruments, Downers Grove, Ill.).", "data": [{"substance": "[Nle^8,18, Tyr^34]bPTH(1-34)amide", "values": [{"measurement": "inhibition of 125I-PTHrP binding by competitor", "setting": "COS cells expressing R15B, FIG. 13", "result": "inhibited"}, {"measurement": "specific binding of radiolabelled ligand", "setting": "radiolabelled ligand ~200,000 cpm, COS-7 cells expressing R15B", "result": "8.1 ± 3.5", "unit": "%"}]}]}
